From patent publication US7741327B2 (Hoffmann-La Roche Inc., priority 2008, dated 2010)

Biological target: T1, Recombinant human liver GK1 (GST-GK) (Homo sapiens, UniProt P35557)
T1 construct: made in house; host or cells: E. coli
T1 sequence (P35557 1-466 isoform P35557-2): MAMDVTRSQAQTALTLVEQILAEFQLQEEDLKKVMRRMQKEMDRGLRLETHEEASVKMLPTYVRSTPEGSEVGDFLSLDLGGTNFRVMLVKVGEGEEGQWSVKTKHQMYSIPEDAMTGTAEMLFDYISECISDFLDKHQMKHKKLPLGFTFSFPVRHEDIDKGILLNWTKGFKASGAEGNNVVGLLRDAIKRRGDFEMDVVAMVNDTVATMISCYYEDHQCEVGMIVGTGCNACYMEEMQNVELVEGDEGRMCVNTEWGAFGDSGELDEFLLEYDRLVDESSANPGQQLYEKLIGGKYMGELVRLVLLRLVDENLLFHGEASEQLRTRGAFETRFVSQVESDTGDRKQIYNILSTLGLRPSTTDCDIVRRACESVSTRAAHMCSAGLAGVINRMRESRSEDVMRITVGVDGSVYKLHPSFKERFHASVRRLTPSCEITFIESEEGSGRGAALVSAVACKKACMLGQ
Assay: In vitro glucokinase activity (G6PDH-coupled NADH assay)
Format: biochemical
Settings: 30° C., 5 mM D-glucose, 10% DMSO
Procedure, shortened: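 Activation measured as the rate of OD340 rise from G6PDH-coupled NADH production, relative to 10% DMSO control, reported as SC1.5 (concentration for 50% activity increase). Conditions: 30° C, pH 7.1 Hepes, 5 mM glucose, 1 mM ATP, purified recombinant GST-human GK1, compound preincubated 10 min before enzyme addition.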

Row | SC1.5 (concentration of activator that produced a 50% increase in the activity of GK) | Structure (SMILES)
1 | 0.2 µM | CCOc1cccc(OC2=CC(=O)N([C@@H](CC(C)C)C(=O)Nc3cnc([C@H]4COC(C)(C)O4)cn3)C2)c1F [Example 150, (S)-2-[4-(3-Ethoxy-2-fluoro-phenoxy)-2-oxo-2,5-dihydro-pyrrol-1-yl]-4-methyl-pentanoic acid [5-((S)-2,2-dimethyl-[1,3]dioxolan-4-yl)-pyrazin-2-yl]-amide]
2 | 0.21 µM | CCOC(=O)Cn1ccc(NC(=O)[C@H](CC(C)C)N2CC(Oc3cccc(C4CC4)c3F)=CC2=O)n1 [Example 148, (3-{(S)-2-[4-(3-Cyclopropyl-2-fluoro-phenoxy)-2-oxo-2,5-dihydro-pyrrol-1-yl]-4-methyl-pentanoylamino}-pyrazol-1-yl)-acetic acid ethyl ester]
3 | 0.012 µM | CC(C)(O)Cn1ccc(NC(=O)[C@H](CC2CCCCC2)N2CC(Oc3ccc(Cl)cc3Cl)=CC2=O)n1 [Example 202, (S)-3-cyclohexyl-2-[4-(2,4-dichloro-phenoxy)-2-oxo-2,5-dihydro-pyrrol-1-yl]-N-[1-(2-hydroxy-2-methyl-propyl)-1H-pyrazol-3-yl]-propionamide]
4 | 3.771 µM | COC1=CC(=O)N([C@@H](CC2CCCC2)C(=O)Nc2ccn(CC(C)(C)O)n2)C1 [Example 1, (S)-3-Cyclopentyl-N-[1-(2-hydroxy-2-methyl-propyl)-1H-pyrazol-3-yl]-2-(4-methoxy-2-oxo-2,5-dihydro-pyrrol-1-yl)-propionamide]
5 | 0.039 µM | COCCn1ccc(NC(=O)[C@H](CC2CCCCC2)N2CC(Oc3ccccc3C(F)(F)F)=CC2=O)n1.Cl [Example 91, (S)-3-Cyclohexyl-N-[1-(2-methoxy-ethyl)-1H-pyrazol-3-yl]-2-[2-oxo-4-(2-trifluoromethyl-phenoxy)-2,5-dihydro-pyrrol-1-yl]-propionamide Hydrochloride]
6 | 0.105 µM | CC(C)C[C@@H](C(=O)Nc1ccn(C[C@@H](O)CO)n1)N1CC(Oc2cccc(C3CC3)c2F)=CC1=O [Example 147, (S)-2-[4-(3-Cyclopropyl-2-fluoro-phenoxy)-2-oxo-2,5-dihydro-pyrrol-1-yl]-4-methyl-pentanoic acid [1-((R)-2,3-dihydroxy-propyl)-1H-pyrazol-3-yl]-amide]
7 | 0.069 µM | CC(C)C[C@@H](C(=O)Nc1ccn(C[C@@H](O)CO)n1)N1CC(Oc2c(F)ccc(OC(C)C)c2F)=CC1=O [Example 134, (S)-2-[4-(2,6-Difluoro-3-isopropoxy-phenoxy)-2-oxo-2,5-dihydro-pyrrol-1-yl]-4-methyl-pentanoic acid [1-((R)-2,3-dihydroxy-propyl)-1H-pyrazol-3-yl]-amide]
8 | 0.796 µM | CC(C)C[C@@H](C(=O)Nc1ccn(C[C@@H]2COC(C)(C)O2)n1)N1CC(Oc2cccc(N(C)C)c2F)=CC1=O [Example 139, (S)-2-[4-(3-Dimethylamino-2-fluoro-phenoxy)-2-oxo-2,5-dihydro-pyrrol-1-yl]-4-methyl-pentanoic acid [1-((R)-2,2-dimethyl-[1,3]dioxolan-4-yl-methyl)-1H-pyrazol-3-yl]-amide]
9 | 0.682 µM | CC(C)C[C@@H](C(=O)Nc1ccn(C[C@@H]2COC(C)(C)O2)n1)N1CC(Oc2cccc(Cl)c2Cl)=CC1=O [Example 79, (S)-2-[4-(2,3-Dichloro-phenoxy)-2-oxo-2,5-dihydro-pyrrol-1-yl]-4-methyl-pentanoic acid [1-((R)-2,2-dimethyl-[1,3]dioxolan-4-yl-methyl)-1H-pyrazol-3-yl]-amide]
10 | > 30 µM | CC(C)C[C@@H](C(=O)Nc1nc(N(C)C)ns1)N1CC(Oc2ccccc2Cl)=CC1=O [Example 108, (S)-2-[4-(2-Chloro-phenoxy)-2-oxo-2,5-dihydro-pyrrol-1-yl]-4-methyl-pentanoic acid (3-dimethylamino-[1,2,4]thiadiazol-5-yl)-amide]

More lines, now with the values behind:

Row | Structure (SMILES) | SC1.5 (concentration of activator that produced a 50% increase in the activity of GK)
11 | COc1cccc(OC2=CC(=O)N([C@@H](CC3CCCC3)C(=O)Nc3ccn(CC(C)(C)O)n3)C2)c1Cl [Example 54, (S)-2-[4-(2-chloro-3-methoxy-phenoxy)-2-oxo-2,5-dihydro-pyrrol-1-yl]-3-cyclopentyl-N-[1-(2-hydroxy-2-methyl-propyl)-1H-pyrazol-3-yl]-propionamide] | 0.008 µM
12 | CC(C)C[C@@H](C(=O)Nc1ccn(C[C@H](O)CO)n1)N1CC(Oc2ccccc2Cl)=CC1=O [Example 175, (S)-2-[4-(2-Chloro-phenoxy)-2-oxo-2,5-dihydro-pyrrol-1-yl]-4-methyl-pentanoic acid [1-((S)-2,3-dihyrxy-propyl)-1H-pyrazol-3-yl]-amide] | 0.138 µM
13 | CC[C@@H](C)CC(C(=O)Nc1ccn(C[C@@H]2COC(C)(C)O2)n1)N1CC(Oc2ccccc2Cl)=CC1=O (stereo partly drawn) [Example 252, (R)-2-[4-(2-Chloro-phenoxy)-2-oxo-2,5-dihydro-pyrrol-1-yl]-4-methyl-hexanoic acid [1-((R)-2,2-dimethyl-[1,3]dioxolan-4-ylmethyl)-1H-pyrazol-3-yl]-amide] | 0.197 µM
14 | C=Cc1cccc(OC2=CC(=O)N([C@@H](CC(C)C)C(=O)Nc3ccn(C[C@@H]4COC(C)(C)O4)n3)C2)c1F [Example 144, (S)-2-[4-(2-Fluoro-3-vinyl-phenoxy)-2-oxo-2,5-dihydro-pyrrol-1-yl]-4-methyl-pentanoic acid [1-((R)-2,2-dimethyl-[1,3]dioxolan-4-yl-methyl)-1H-pyrazol-3-yl]-amide] | 0.251 µM
15 | Cl.O=C(Nc1ccn(C[C@@H](O)CO)n1)[C@H](CC1CCCCC1)N1CC(Oc2c(F)ccc(Cl)c2F)=CC1=O [Example 76, (S)-2-[4-(3-Chloro-2,6-difluoro-phenoxy)-2-oxo-2,5-dihydro-pyrrol-1-yl]-3-cyclohexyl-N-[1-((R)-2,3-dihydroxy-propyl)-1H-pyrazol-3-yl]-propionamide Hydrochloride] | 0.017 µM
16 | CC(C)(O)Cn1ccc(NC(=O)[C@H](C[C@@H]2CCCCO2)N2CC(Oc3c(F)cccc3F)=CC2=O)n1 [Example 262, (S)-2-[4-(2,6-Difluoro-phenoxy)-2-oxo-2,5-dihydro-pyrrol-1-yl]-N-[1-(2-hydroxy-2-methyl-propyl)-1H-pyrazol-3-yl]-3-tetrahydro-pyran-2-yl-propionamide] | 0.33 µM
17 | Cc1ccc(OC2=CC(=O)N([C@@H](CC3CCCCC3)C(=O)Nc3ccn(CC(C)(C)O)n3)C2)cn1 [Example 212, (S)-3-cyclohexyl-N-[1-(2-hydroxy-2-methyl-propyl)-1H-pyrazol-3-yl]-2-[4-(6-methyl-pyridin-3-yloxy)-2-oxo-2,5-dihydro-pyrrol-1-yl]-propionamide] | 0.054 µM
18 | O=C(Nc1ccn(C[C@@H](O)CO)n1)C(CC1CCC1)N1CC(Oc2ccccc2Cl)=CC1=O (stereo partly drawn) [Example 169, 2-[4-(2-chloro-phenoxy)-2-oxo-2,5-dihydro-pyrrol-1-yl]-3-cyclobutyl-N-[1-((R)-2,3-dihydroxy-propyl)-1H-pyrazol-3-yl]-propionamide] | 0.086 µM
19 | CC(C)NC1=CC(=O)N([C@@H](CC2CCCCC2)C(=O)Nc2ccn(CC(C)(C)O)n2)C1 [Example 232, (S)-3-cyclohexyl-N-[1-(2-hydroxy-2-methyl-propyl)-1H-pyrazol-3-yl]-2-(4-isopropylamino-2-oxo-2,5-dihydro-pyrrol-1-yl)-propionamide] | 12.232 µM
20 | COc1ccccc1OC1=CC(=O)N([C@@H](CC2CCCCC2)C(=O)Nc2ccn(C)n2)C1 [Example 29, (S)-3-Cyclohexyl-N-(1-methyl-1H-pyrazol-3-yl)-2-[4-(2-methoxy-phenoxy)-2-oxo-2,5-dihydro-pyrrol-1-yl]-propionamide] | 0.033 µM
21 | CC(C)C[C@@H](C(=O)Nc1ccn(C[C@@H](O)C[C@@H](O)CC(=O)OC(C)(C)C)n1)N1CC(Oc2ccccc2Cl)=CC1=O [Example 193, (3R,5S)-6-(3-{(S)-2-[4-(2-chloro-phenoxy)-2-oxo-2,5-dihydro-pyrrol-1-yl]-4-methyl-pentanoylamino}-pyrazol-1-yl)-3,5-dihydroxy-hexanoic acid t-butyl ester] | 0.307 µM
22 | CC(C)C[C@@H](C(=O)Nc1ccn(C[C@@H](O)CO)n1)N1CC(Oc2ccccc2F)=CC1=O [Example 166, (S)-2-[4-(2-Fluoro-phenoxy)-2-oxo-2,5-dihydro-pyrrol-1-yl]-4-methyl-pentanoic acid [1-((R)-2,3-dihydroxy-propyl)-1H-pyrazol-3-yl]-amide] | 0.239 µM

Same assay, conditions: at 30 μM test compound

Row | fold act. @ 30 μM | Structure (SMILES)
23 | 1.4 fold | CC(C)C[C@@H](C(=O)Nc1nc(N(C)C)ns1)N1CC(Oc2ccccc2Cl)=CC1=O [Example 108, (S)-2-[4-(2-Chloro-phenoxy)-2-oxo-2,5-dihydro-pyrrol-1-yl]-4-methyl-pentanoic acid (3-dimethylamino-[1,2,4]thiadiazol-5-yl)-amide]
